A short description of series [1]: Biodistribution in healthy mice. Format: in vivo. Particulars: male, mouse, 10 pmol total peptide, total radioactivity, healthy Swiss albino mice, iv 10 pmol; for tissue uptake at 4 h: 4 h pi. As for the experimental part:
In the in vivo receptor blockade animal group, excess Tate (50 nmol) was administered intravenously (iv) together with the radioligand. Animals were sacrificed in groups of four at 4- and 24-h time points post injection (pi). […] Tissue distribution data were calculated as percent injected dose per gram (%ID/g) applying a suitable algorithm.
The in vivo data presented as mean %ID/g ± SD (n ≥ 4) were statistically analyzed with Student’s t test (Prism^TM 2.01, GraphPad Software, San Diego, CA, USA). Analyses were 2-tailed, and a P value < 0.05 was considered statistically significant.

Series [2] can be described thus: Metabolism in blood (in vivo stability). The arrangement: species or system mouse. Particulars: healthy male Swiss albino mice, blood collected 5 min after iv injection (3 nmol), RP-HPLC radioanalysis. As for the experimental part: The animals were kept for 5 min in cages with free access to water. They were sacrificed by cardiac puncture under ether anesthesia, and blood was withdrawn with a syringe and immediately placed in a pre-chilled EDTA-containing polypropylene vial on ice. Blood samples were centrifuged at 2,000 × g at 4 °C for 10 min.

The results in this text go back to paper PMC3407795 (EJNMMI Research, 2012).

Where two headings read alike, the source gives them in different places. Some results are limits rather than exact numbers.

Regarding `C[C@H](NC(=O)CN1CCN(CC(=O)O)CCN(CC(=O)O)CCN(CC(=O)O)CC1)C(=O)NCC(=O)N[C@H]1CSSC[C@@H](C(=O)O)NC(=O)[C@H](CO)NC(=O)[C@H]([C@@H](C)O)NC(=O)[C@H](Cc2ccccc2)NC(=O)[C@H]([C@@H](C)O)NC(=O)[C@H](CCCCN)NC(=O)[C@H](Cc2c[nH]c3ccccc23)NC(=O)[C@H](Cc2ccccc2)NC(=O)[C@H](Cc2ccccc2)NC(=O)[C@H](CC(N)=O)NC(=O)[C@H](CCCCN)NC1=O` [[^111In]AT1S, metal not drawn], the tissue uptake at 4 h in series [1] (kidney, read-out: Kidney uptake) is 10.9 %ID/g; in series [1] (pancreas, read-out: Pancreas uptake), below 0.5 %ID/g. Besides, the tissue uptake at 24 h in series [1] (kidney, 24 h pi) worked out at 6.6 %ID/g. Besides, the “intact radiopeptide detected in blood” value in series [2] worked out at 2%.
